Measurements taken from PubChem BioAssay (NCI).
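Tested at 5 concentrations; 48 h exposure; 96-well plates; endpoints linearly interpolated, else capped at highest concentration. The concentration for 50% growth inhibition is given as GI50. TGI marks complete inhibition of growth.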

Tests used:
Assay in all cases: inhibition of tumour cell growth, NCI panel, 48 h
MOLT-4 leukemia = test system: MOLT-4 leukemia
HCT-15 colon = test system: HCT-15 colon
HT29 colon = test system: HT29 colon
SF-295 CNS = test system: SF-295 CNS
A549 NSCLC = test system: A549 NSCLC
SR leukemia = test system: SR leukemia
RXF 393 renal = test system: RXF 393 renal
TK-10 renal = test system: TK-10 renal
HOP-92 NSCLC = test system: HOP-92 NSCLC
OVCAR-5 ovarian = test system: OVCAR-5 ovarian
SF-268 CNS = test system: SF-268 CNS
HS 578T breast = test system: HS 578T breast
UO-31 renal = test system: UO-31 renal
NCI-H460 lung = test system: NCI-H460 lung
CAKI-1 renal = test system: CAKI-1 renal
NCI-H226 lung = test system: NCI-H226 lung
CCRF-CEM leukemia = test system: CCRF-CEM leukemia
LOX IMVI melanoma = test system: LOX IMVI melanoma
PC-3 prostate = test system: PC-3 prostate
HCC-2998 colon = test system: HCC-2998 colon
HL-60(TB) leukemia = test system: HL-60(TB) leukemia
K-562 leukemia = test system: K-562 leukemia
ACHN renal = test system: ACHN renal
OVCAR-3 ovarian = test system: OVCAR-3 ovarian
MDA-MB-435 = test system: MDA-MB-435
MCF7 breast = test system: MCF7 breast
U251 CNS = test system: U251 CNS
DU-145 prostate = test system: DU-145 prostate
RPMI-8226 leukemia = test system: RPMI-8226 leukemia
BT-549 breast = test system: BT-549 breast
OVCAR-8 ovarian = test system: OVCAR-8 ovarian
UACC-62 melanoma = test system: UACC-62 melanoma
SK-MEL-5 melanoma = test system: SK-MEL-5 melanoma
HCT-116 colon = test system: HCT-116 colon
SK-MEL-2 melanoma = test system: SK-MEL-2 melanoma
SN12C renal = test system: SN12C renal
OVCAR-4 ovarian = test system: OVCAR-4 ovarian
NCI-H23 lung = test system: NCI-H23 lung
IGROV1 ovarian = test system: IGROV1 ovarian
786-0 renal = test system: 786-0 renal
A498 renal = test system: A498 renal
KM12 colon = test system: KM12 colon
T-47D breast = test system: T-47D breast
SK-MEL-28 melanoma = test system: SK-MEL-28 melanoma
NCI/ADR-RES ovarian = test system: NCI/ADR-RES ovarian
COLO 205 colon = test system: COLO 205 colon
M14 melanoma = test system: M14 melanoma
SW-620 colon = test system: SW-620 colon
EKVX NSCLC = test system: EKVX NSCLC
HOP-62 NSCLC = test system: HOP-62 NSCLC
SNB-19 CNS = test system: SNB-19 CNS
MALME-3M melanoma = test system: MALME-3M melanoma
NCI-H522 lung = test system: NCI-H522 lung
SNB-75 CNS = test system: SNB-75 CNS
SF-539 CNS = test system: SF-539 CNS
MDA-MB-231 breast = test system: MDA-MB-231 breast
SK-OV-3 ovarian = test system: SK-OV-3 ovarian
UACC-257 melanoma = test system: UACC-257 melanoma

Q: How did the GI50 (MOLT-4 leukemia) turn out when `COc1cc2c3c(n(CCCNCCCNCCCn4c5c(c6cc(OC)c(OC)cc6c4=O)C(=O)c4ccccc4-5)c(=O)c2cc1OC)-c1ccccc1C3=O` was run?
A: 2.65 µM

Q: What about the TGI (MOLT-4 leukemia) of the same compound?
A: 9.8 µM

Q: And the GI50 (HCT-15 colon)?
A: > 84.5 µM

Q: What about the TGI (HCT-15 colon) of the same compound?
A: > 100 µM

Q: What about the GI50 (HT29 colon) of the same compound?
A: 2.15 µM

Q: What about the TGI (HT29 colon) of the same compound?
A: > 100 µM

Q: What about the GI50 (SF-295 CNS) of the same compound?
A: 5.03 µM

Q: What about the TGI (SF-295 CNS) of the same compound?
A: 18.4 µM

Q: And the GI50 (A549 NSCLC)?
A: 12.7 µM

Q: What about the TGI (A549 NSCLC) of the same compound?
A: > 100 µM

Q: What about the GI50 (SR leukemia) of the same compound?
A: 0.225 µM

Q: What about the TGI (SR leukemia) of the same compound?
A: 22.2 µM

Q: And the GI50 (RXF 393 renal)?
A: > 47.8 µM

Q: And the TGI (RXF 393 renal)?
A: > 92.2 µM

Q: What about the GI50 (TK-10 renal) of the same compound?
A: 40.2 µM

Q: What about the TGI (TK-10 renal) of the same compound?
A: > 100 µM

Q: And the GI50 (HOP-92 NSCLC)?
A: 1.74 µM

Q: And the TGI (HOP-92 NSCLC)?
A: 8.62 µM

Q: And the GI50 (OVCAR-5 ovarian)?
A: 20 µM

Q: What about the TGI (OVCAR-5 ovarian) of the same compound?
A: > 100 µM

Q: What about the GI50 (SF-268 CNS) of the same compound?
A: 6.61 µM

Q: What about the TGI (SF-268 CNS) of the same compound?
A: > 100 µM

Q: And the GI50 (HS 578T breast)?
A: > 50.7 µM

Q: And the TGI (HS 578T breast)?
A: > 100 µM

Q: And the GI50 (UO-31 renal)?
A: > 100 µM

Q: And the TGI (UO-31 renal)?
A: > 100 µM

Q: And the GI50 (NCI-H460 lung)?
A: 6.23 µM

Q: And the TGI (NCI-H460 lung)?
A: > 100 µM

Q: What about the GI50 (CAKI-1 renal) of the same compound?
A: > 100 µM

Q: What about the TGI (CAKI-1 renal) of the same compound?
A: > 100 µM

Q: And the GI50 (NCI-H226 lung)?
A: 7.89 µM

Q: And the TGI (NCI-H226 lung)?
A: > 52.2 µM

Q: What about the GI50 (CCRF-CEM leukemia) of the same compound?
A: 0.491 µM

Q: And the TGI (CCRF-CEM leukemia)?
A: 12.7 µM

Q: And the GI50 (LOX IMVI melanoma)?
A: 1.31 µM

Q: What about the TGI (LOX IMVI melanoma) of the same compound?
A: 13.9 µM

Q: And the GI50 (PC-3 prostate)?
A: 4.04 µM

Q: What about the TGI (PC-3 prostate) of the same compound?
A: > 60 µM

Q: What about the GI50 (HCC-2998 colon) of the same compound?
A: 2.13 µM

Q: What about the TGI (HCC-2998 colon) of the same compound?
A: 30.3 µM

Q: And the GI50 (HL-60(TB) leukemia)?
A: 1.11 µM

Q: What about the TGI (HL-60(TB) leukemia) of the same compound?
A: 12.6 µM

Q: And the GI50 (K-562 leukemia)?
A: 3.39 µM

Q: And the TGI (K-562 leukemia)?
A: 45.4 µM

Q: And the GI50 (ACHN renal)?
A: 24.2 µM

Q: What about the TGI (ACHN renal) of the same compound?
A: > 100 µM

Q: And the GI50 (OVCAR-3 ovarian)?
A: 12.6 µM

Q: And the TGI (OVCAR-3 ovarian)?
A: 31.5 µM

Q: What about the GI50 (MDA-MB-435) of the same compound?
A: 12.9 µM

Q: What about the TGI (MDA-MB-435) of the same compound?
A: > 59.1 µM

Q: And the GI50 (MCF7 breast)?
A: 1.51 µM

Q: What about the TGI (MCF7 breast) of the same compound?
A: > 53.2 µM

Q: What about the GI50 (U251 CNS) of the same compound?
A: 2.49 µM

Q: What about the TGI (U251 CNS) of the same compound?
A: 17.4 µM

Q: And the GI50 (DU-145 prostate)?
A: > 44.3 µM

Q: And the TGI (DU-145 prostate)?
A: > 100 µM

Q: What about the GI50 (RPMI-8226 leukemia) of the same compound?
A: 0.487 µM

Q: What about the TGI (RPMI-8226 leukemia) of the same compound?
A: 6.62 µM

Q: What about the GI50 (BT-549 breast) of the same compound?
A: 58.2 µM

Q: What about the TGI (BT-549 breast) of the same compound?
A: > 100 µM

Q: What about the GI50 (OVCAR-8 ovarian) of the same compound?
A: 2.87 µM

Q: And the TGI (OVCAR-8 ovarian)?
A: > 100 µM

Q: What about the GI50 (UACC-62 melanoma) of the same compound?
A: 8.75 µM

Q: And the TGI (UACC-62 melanoma)?
A: 38.9 µM

Q: And the GI50 (SK-MEL-5 melanoma)?
A: 68.2 µM

Q: What about the TGI (SK-MEL-5 melanoma) of the same compound?
A: > 100 µM

Q: And the GI50 (HCT-116 colon)?
A: 1.27 µM

Q: What about the TGI (HCT-116 colon) of the same compound?
A: 17.6 µM

Q: And the GI50 (SK-MEL-2 melanoma)?
A: 40.3 µM

Q: And the TGI (SK-MEL-2 melanoma)?
A: > 100 µM

Q: And the GI50 (SN12C renal)?
A: 0.706 µM

Q: What about the TGI (SN12C renal) of the same compound?
A: > 51.6 µM

Q: And the GI50 (OVCAR-4 ovarian)?
A: > 100 µM

Q: What about the TGI (OVCAR-4 ovarian) of the same compound?
A: > 100 µM

Q: What about the GI50 (NCI-H23 lung) of the same compound?
A: > 100 µM

Q: What about the TGI (NCI-H23 lung) of the same compound?
A: > 100 µM

Q: And the GI50 (IGROV1 ovarian)?
A: 1.33 µM

Q: What about the TGI (IGROV1 ovarian) of the same compound?
A: > 55.6 µM

Q: And the TGI (786-0 renal)?
A: > 46.4 µM

Q: And the GI50 (A498 renal)?
A: 25.2 µM

Q: And the TGI (A498 renal)?
A: 59.8 µM

Q: What about the GI50 (KM12 colon) of the same compound?
A: 4.77 µM

Q: And the TGI (KM12 colon)?
A: > 84.9 µM

Q: What about the GI50 (T-47D breast) of the same compound?
A: > 24.8 µM

Q: What about the TGI (T-47D breast) of the same compound?
A: > 100 µM

Q: And the GI50 (SK-MEL-28 melanoma)?
A: > 52.5 µM

Q: And the TGI (SK-MEL-28 melanoma)?
A: > 82.4 µM

Q: And the GI50 (NCI/ADR-RES ovarian)?
A: > 100 µM

Q: And the TGI (NCI/ADR-RES ovarian)?
A: > 100 µM

Q: What about the GI50 (COLO 205 colon) of the same compound?
A: 7.24 µM

Q: What about the TGI (COLO 205 colon) of the same compound?
A: > 61.9 µM

Q: What about the GI50 (M14 melanoma) of the same compound?
A: 22.6 µM

Q: And the TGI (M14 melanoma)?
A: > 58.9 µM

Q: And the GI50 (SW-620 colon)?
A: 7.51 µM

Q: And the TGI (SW-620 colon)?
A: > 100 µM

Q: What about the GI50 (EKVX NSCLC) of the same compound?
A: > 100 µM

Q: What about the TGI (EKVX NSCLC) of the same compound?
A: > 100 µM

Q: And the GI50 (HOP-62 NSCLC)?
A: 6.59 µM

Q: What about the TGI (HOP-62 NSCLC) of the same compound?
A: 47 µM

Q: And the GI50 (SNB-19 CNS)?
A: 6.91 µM

Q: What about the TGI (SNB-19 CNS) of the same compound?
A: > 47.8 µM

Q: And the GI50 (MALME-3M melanoma)?
A: 25.7 µM

Q: What about the TGI (MALME-3M melanoma) of the same compound?
A: > 91.7 µM

Q: What about the GI50 (NCI-H522 lung) of the same compound?
A: 1.54 µM

Q: And the TGI (NCI-H522 lung)?
A: 38.7 µM

Q: And the GI50 (SNB-75 CNS)?
A: 25 µM

Q: What about the TGI (SNB-75 CNS) of the same compound?
A: 62.1 µM

Q: What about the GI50 (SF-539 CNS) of the same compound?
A: 9.17 µM

Q: What about the TGI (SF-539 CNS) of the same compound?
A: 45.4 µM

Q: What about the GI50 (MDA-MB-231 breast) of the same compound?
A: 2 µM

Q: What about the TGI (MDA-MB-231 breast) of the same compound?
A: 20.1 µM

Q: And the GI50 (SK-OV-3 ovarian)?
A: > 100 µM

Q: And the TGI (SK-OV-3 ovarian)?
A: > 100 µM

Q: What about the GI50 (UACC-257 melanoma) of the same compound?
A: > 100 µM

Q: And the TGI (UACC-257 melanoma)?
A: > 100 µM
